The source of these data is ChEMBL document CHEMBL1201862, “PubChem BioAssay data set” (2004).

Common to all, as to assay: NCI tumour cell line growth inhibition, 48 h
The subject of test [1] is A549.
Test [2] concerns ACHN.
The test system of test [3] is CCRF-CEM.
Test [4] relates to COLO 205.
Test [5] relates to DU-145.
The subject of test [6] is HCT-116.
Test [7] relates to HT-29.
The test system of test [8] is IGROV-1.
Test [9] deals with K562.
Test [10] relates to KM12.
The test system of test [11] is M14.
The test system of test [12] is MDA-MB-435.
Test [13] relates to MOLT-4.
Test [14] has as its system NCI/ADR-RES.
For test [15], the system named is OVCAR-4.
The test system of test [16] is PC-3.
Test [17] relates to SF-539.
For test [18], the system named is SR.
Test [19] has as its system UACC-257.
For test [20], the system named is UACC-62.

Structures are written as SMILES.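 Cultured in 96-well plates, cells were exposed to test compound for 48 hours across five concentrations. At the GI50, growth is halved.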 Active and inactive are the calls of the source. Rule as the data show it: active = GI50 up to about 1.1 µM and inactive = higher.

With `COc1cc(/C=C(\C#N)c2nc3ccccc3o2)ccc1O`, the GI50 was 17.8 µM (inactive) in test [1]; 19 µM (inactive) in test [2]; 26.3 µM (inactive) in test [3]; 16.9 µM (inactive) in [4]; 25.6 µM (inactive) in test [5]; 16.5 µM (inactive) in test [6]. Further, the GI50 in test [7] is 22.3 µM (inactive); in test [8] it was 17.2 µM (inactive); in test [9] it was 35.4 µM (inactive); in [10], 17.6 µM (inactive); in test [11] it was 13.6 µM (inactive); in [12], 16.4 µM (inactive). Moreover, the GI50 was 28.5 µM (inactive) in test [13]; 24.1 µM (inactive) in test [14]; 11.2 µM (inactive) in test [15]; 21.2 µM (inactive) in test [16]; 12 µM (inactive) in test [17]; 24.2 µM (inactive) in [18]. Besides, the GI50 was 23.5 µM (inactive) in [19] and 18.6 µM (inactive) in [20].

For the compound `CC(=O)OCC1OC(n2cc(F)c(=O)[nH]c2=O)C(OC(C)=O)C1OC(C)=O` (stereo not given), the GI50 in test [1] was 16.7 µM (inactive); in [2] it was 12.9 µM (inactive); in test [3], 6 µM (inactive); in test [4], 12.2 µM (inactive); in [5], 70.5 µM (inactive); in test [6], 4.25 µM (inactive). The GI50 was 27.9 µM (inactive) in test [7]; 52.4 µM (inactive) in [8]; 9.27 µM (inactive) in test [9]; 8.41 µM (inactive) in test [10]; 48.9 µM (inactive) in [11]; 17 µM (inactive) in test [12]. Further, the GI50 in [13] is 4.13 µM (inactive); in test [14], 37.4 µM (inactive); in test [15], 30.3 µM (inactive); in test [16], 73.8 µM (inactive); in test [17], 7.55 µM (inactive); in [18] it was 6.73 µM (inactive). Further, the GI50 in [19] is 47.3 µM (inactive); in [20], 17.5 µM (inactive).

Take `N#Cc1c(N)sc2c1-c1ccccc1OC2`: the GI50 in test [1] was 32.4 µM (inactive); in test [2], 32.2 µM (inactive); in test [3] it was 12.4 µM (inactive); in [4] it was 42.8 µM (inactive); in test [5] it was 50.1 µM (inactive); in [6], 27.3 µM (inactive). Also, the GI50 is 26.2 µM (inactive) in test [7]; 49.7 µM (inactive) in test [8]; 34.2 µM (inactive) in test [9]; 38.2 µM (inactive) in test [10]; 56.5 µM (inactive) in [11]; 32.5 µM (inactive) in test [12]. Besides, the GI50 in test [13] was 17.5 µM (inactive); in [14], 32.2 µM (inactive); in test [15] it was 26.5 µM (inactive); in [16], 32.4 µM (inactive); in [17] it was 46.6 µM (inactive); in test [18], 19.1 µM (inactive). Further, the GI50 in [19] is > 100 µM (inactive); in test [20], 53.7 µM (inactive).

`NC12Oc3cc(O)cc(O)c3C1(c1ccc(Cl)cc1)c1c(O)cc(O)cc1O2` (stereo not given): the GI50 in [1] is > 100 µM (inactive); in test [2], > 100 µM (inactive); in test [3], 37.7 µM (inactive); in test [4] it was 97.5 µM (inactive); in test [5] it was > 100 µM (inactive); in [6], 46 µM (inactive). For the same compound, the GI50 in test [7] was 35.4 µM (inactive); in [8] it was 41.7 µM (inactive); in test [9], 30.8 µM (inactive); in [10], > 100 µM (inactive); in test [11], > 100 µM (inactive); in test [12], 46.8 µM (inactive). Moreover, the GI50 in [13] is 27.9 µM (inactive); in test [14] it was > 100 µM (inactive); in test [15], 27.5 µM (inactive); in test [16], 43 µM (inactive); in [17], 42.8 µM (inactive); in test [18] it was 22.5 µM (inactive). Besides, the GI50 in test [19] was 79.1 µM (inactive); in [20], 42 µM (inactive).

Consider `Cc1ccc(CN2CCN(Cc3ccc(C)o3)C(C)C2)o1` (stereo not given), for which the GI50 in test [1], in test [2], in [3], in test [4], in [5] and in test [6] was > 100 µM (inactive) throughout. The GI50 in [7], in [8], in test [9], in test [10], in test [11] and in [12] was > 100 µM (inactive) in each case. The GI50 in [13], in test [14], in test [15], in test [16], in test [17] and in test [18] was > 100 µM (inactive) throughout. In addition, the GI50 in test [19] and in test [20] was > 100 µM (inactive) throughout.

Take `N#Cc1c(-c2ccc(Cl)cc2)cc(-c2nc3ccccc3[nH]2)nc1N`: the GI50 was 5.92 µM (inactive) in test [1]; 11.1 µM (inactive) in test [2]; 5.57 µM (inactive) in test [3]; 4.3 µM (inactive) in [4]; 6.98 µM (inactive) in test [5]; 10.3 µM (inactive) in test [6]. Moreover, the GI50 in test [7] is 9.16 µM (inactive); in [8] it was 2.39 µM (inactive); in test [9], 6.71 µM (inactive); in [10], 10 µM (inactive); in test [11], 4.32 µM (inactive); in test [12], 5.43 µM (inactive). The GI50 in test [13] is 2.92 µM (inactive); in [14], 15 µM (inactive); in test [15], 18.6 µM (inactive); in test [16], 11 µM (inactive); in test [17], 15.3 µM (inactive); in [18], 4.56 µM (inactive). Besides, the GI50 is 5.14 µM (inactive) in test [19] and 7.66 µM (inactive) in [20].

Consider `O=c1[nH]c(=S)[nH]n1C(=S)n1[nH]c(=S)[nH]c1=O`, for which the GI50 is > 100 µM (inactive) in test [1]; > 100 µM (inactive) in test [2]; 71.8 µM (inactive) in [3]; > 100 µM (inactive) in test [4]; > 100 µM (inactive) in test [5]; > 100 µM (inactive) in test [6]. Also, the GI50 in [7], in test [8], in test [9], in test [10], in [11] and in test [12] was > 100 µM (inactive) each time. The GI50 in test [13] was > 100 µM (inactive); in [14], > 100 µM (inactive); in test [15], > 100 µM (inactive); in test [16], > 100 µM (inactive); in test [17], > 100 µM (inactive); in test [18] it was 41.4 µM (inactive). Besides, the GI50 in test [19] and in [20] was > 100 µM (inactive) each time.

With `CC(C)CC(C(N)=O)C(=O)NC(Cc1ccccc1)NC(=O)CNC(=O)C(C)NC(=O)C(N)Cc1ccc(O)cc1` (stereo not given), the GI50 in test [1], in test [2], in [3], in test [4], in [5] and in test [6] was > 100 µM (inactive) each time. Besides, the GI50 in [7], in test [8], in [9], in test [10], in [11] and in test [12] was > 100 µM (inactive) throughout. Moreover, the GI50 in [13], in test [14], in [15], in test [16], in test [17] and in [18] was > 100 µM (inactive) throughout. Moreover, the GI50 in test [19] and in test [20] was > 100 µM (inactive) throughout.

Regarding `O=S(=O)(Cc1nc2ccccc2s1)c1nc2ccccc2s1`, the GI50 is 29.3 µM (inactive) in [1]; 16.3 µM (inactive) in [2]; 5.5 µM (inactive) in test [3]; 17.9 µM (inactive) in test [4]; 17.9 µM (inactive) in test [5]; 13.9 µM (inactive) in [6]. The GI50 was 18.2 µM (inactive) in test [7]; 18.7 µM (inactive) in test [8]; 12.6 µM (inactive) in test [9]; 18.2 µM (inactive) in [10]; 13 µM (inactive) in [11]; 15.2 µM (inactive) in test [12]. Also, the GI50 in test [13] is 17.6 µM (inactive); in test [14] it was 43.2 µM (inactive); in [15], 16.9 µM (inactive); in test [16], 17 µM (inactive); in test [17], 21.2 µM (inactive); in test [18], 4.72 µM (inactive). For the same compound, the GI50 in test [19] was 15.8 µM (inactive); in test [20] it was 16 µM (inactive).

As to `CC1CC(C)(O)CC(C(O)CC2CC(=O)NC(=O)C2)C1=O` (stereo not given) [RESACTIN A], the GI50 is 0.0513 µM (active) in test [1]; 0.0224 µM (active) in test [2]; < 0.014 µM (active) in [3]; 0.0381 µM (active) in test [4]; 0.0461 µM (active) in test [5]; 0.0308 µM (active) in test [6]. Moreover, the GI50 was 0.037 µM (active) in test [7]; 0.0292 µM (active) in [8]; 0.0309 µM (active) in test [9]; 0.0327 µM (active) in [10]; 0.034 µM (active) in test [11]; 0.0432 µM (active) in test [12]. Moreover, the GI50 is 0.0151 µM (active) in [13]; 0.232 µM (active) in test [14]; 0.0447 µM (active) in test [15]; 0.0465 µM (active) in [16]; 0.0197 µM (active) in test [17]; 0.0251 µM (active) in test [18]. In addition, the GI50 in test [19] was 0.0541 µM (active); in test [20], 0.0413 µM (active).
